Test results: PubChem BioAssay AID1259407 (Chemical Carcinogenesis Research Information System (CCRIS), 2018)
Activity calls are given as the source filed them. How the calls were made is not given here.

System: CCRIS mutagenicity, Ames/micronucleus/aberration tests
Experiment: CCRIS mutagenicity studies
[1] = Test System: AMES SALMONELLA TYPHIMURIUM, Strain/Indicator: TA100, Metabolic Activation: RAT, LIVER, S-9, AROCLOR 1254, Method: STANDARD PLATE
[2] = Test System: AMES SALMONELLA TYPHIMURIUM, Strain/Indicator: TA100, Metabolic Activation: NONE, Method: STANDARD PLATE
[3] = Test System: AMES SALMONELLA TYPHIMURIUM, Strain/Indicator: TA98, Metabolic Activation: RAT, LIVER, S-9, AROCLOR 1254, Method: STANDARD PLATE
[4] = Test System: AMES SALMONELLA TYPHIMURIUM, Strain/Indicator: TA1537, Metabolic Activation: NONE, Method: STANDARD PLATE
[5] = Test System: AMES SALMONELLA TYPHIMURIUM, Strain/Indicator: TA98, Metabolic Activation: NONE, Method: STANDARD PLATE
[6] = Test System: AMES SALMONELLA TYPHIMURIUM, Strain/Indicator: TA1535, Metabolic Activation: NONE, Method: STANDARD PLATE
[7] = Test System: AMES SALMONELLA TYPHIMURIUM, Strain/Indicator: TA1538, Metabolic Activation: NONE, Method: STANDARD PLATE
[8] = Test System: AMES SALMONELLA TYPHIMURIUM, Strain/Indicator: TA98, Metabolic Activation: NONE, Method: PREINCUBATION
[9] = Test System: AMES SALMONELLA TYPHIMURIUM, Strain/Indicator: TA100, Metabolic Activation: NONE, Method: PREINCUBATION

Measured: mutagenic call

c1ccc2c(c1)ccc1cccnc12
inactive: [1] inactive; negative | Test System: AMES SALMONELLA TYPHIMURIUM, Strain/Indicator: TA100, Metabolic Activation: RAT, LIVER, S-9, PHENOBARBITAL AND 5,6-BENZOFLAVONE, Method: PREINCUBATION inactive; negative
active: Test System: AMES SALMONELLA TYPHIMURIUM, Strain/Indicator: TA100, Metabolic Activation: RAT, LIVER, S-9, PCB, Method: STANDARD PLATE active; positive

CN(C)S(=O)(=O)CCNC(=O)N(CCCl)N=O
active: [2] active; positive | [1] active; positive

CC(=O)Nc1nc(-c2ccc([N+](=O)[O-])o2)cs1
active: Test System: AMES SALMONELLA TYPHIMURIUM, Strain/Indicator: TA100, Metabolic Activation: RAT, LIVER, S-9, KC500 OR PHENOBARBITAL, Method: LIQUID SUSPENSION active; positive | Test System: E. COLI WP2, Strain/Indicator: WP2, Metabolic Activation: NONE, Method: SPOT active; positive

Clc1ccc2ccc3cccc4ccc1c2c34
active: [3] active; positive | [1] active; positive

CN(C)CCNC(=O)c1cccc2oc(-c3ccccc3)nc12
inactive: [4] inactive; negative

O=C1OCC(C(Br)Br)=C1Br
active: [2] active; positive

CC1(C)CC(C(=O)O)C(C)(C)N1[O] (configuration not stated)
inactive: [5] inactive; negative | [2] inactive; negative | Test System: AMES SALMONELLA TYPHIMURIUM, Strain/Indicator: TA102, Metabolic Activation: NONE, Method: STANDARD PLATE inactive; negative | Test System: AMES SALMONELLA TYPHIMURIUM, Strain/Indicator: TA102, Metabolic Activation: XANTHINE OXIDASE, Method: STANDARD PLATE inactive; negative | Test System: AMES SALMONELLA TYPHIMURIUM, Strain/Indicator: TA104, Metabolic Activation: NONE, Method: STANDARD PLATE inactive; negative | Test System: AMES SALMONELLA TYPHIMURIUM, Strain/Indicator: TA104, Metabolic Activation: XANTHINE OXIDASE, Method: STANDARD PLATE inactive; negative

O=[N+]([O-])c1ccc(-c2nc3sccn3c2[N+](=O)[O-])cc1
inactive: [6] inactive; negative
active: [5] active; positive | [2] active; positive | [4] active; positive | [7] active; positive

[Cl][Sn][Cl]
inactive: [5] inactive; negative | [3] inactive; negative | [2] inactive; negative | [1] inactive; negative | [6] inactive; negative | Test System: AMES SALMONELLA TYPHIMURIUM, Strain/Indicator: TA1535, Metabolic Activation: RAT, LIVER, S-9, AROCLOR 1254, Method: STANDARD PLATE inactive; negative | [4] inactive; negative | Test System: AMES SALMONELLA TYPHIMURIUM, Strain/Indicator: TA1537, Metabolic Activation: RAT, LIVER, S-9, AROCLOR 1254, Method: STANDARD PLATE inactive; negative | [7] inactive; negative | Test System: AMES SALMONELLA TYPHIMURIUM, Strain/Indicator: TA1538, Metabolic Activation: RAT, LIVER, S-9, AROCLOR 1254, Method: STANDARD PLATE inactive; negative | Test System: E. COLI, Strain/Indicator: WP2, Metabolic Activation: NONE, Method: STANDARD PLATE inactive; negative | Test System: E. COLI, Strain/Indicator: WP2, Metabolic Activation: RAT, LIVER, S-9, AROCLOR 1254, Method: STANDARD PLATE inactive; negative | Test System: E. COLI, Strain/Indicator: WP2 UVRA, Metabolic Activation: NONE, Method: SPOT TEST inactive; negative | Test System: UDS RAT HEPATOCYTES, Strain/Indicator: THY INCORP, Metabolic Activation: NONE inactive; negative
active: End Point: IN VITRO CHROMOSOMAL ABERRATIONS, Test System: CHO CELLS, Metabolic Activation: RAT, LIVER, S-9, AROCLOR 1254 active; positive; precipitation occurred at all doses | End Point: In vivo chromosomal aberrations, Test System: Bone marrow cells (dams), liver cells (fetuses), Species: Mouse, Strain/Sex: Swiss/Female, Route: Oral active; positive (structural and ploidy changes)

Cc1cccc2cc3ccc4ccccc4c3nc12
inactive: Test System: AMES SALMONELLA TYPHIMURIUM, Strain/Indicator: TA97A, Metabolic Activation: NONE, Method: PREINCUBATION inactive; negative | [8] inactive; negative | [9] inactive; negative | Test System: AMES SALMONELLA TYPHIMURIUM, Strain/Indicator: TA102, Metabolic Activation: NONE, Method: PREINCUBATION inactive; negative

Cc1cccc2c1c([N+](=O)[O-])cc[n+]2[O-]
active: Test System: UDS RODENT PRIMARY CELLS, Strain/Indicator: THY INCORP (NON-S-PHASE), Metabolic Activation: NONE, Method: AUTORADIOGRAPHY active; positive

CCN(CC)CCNC(=O)c1cc(Cl)c(N)cc1OC
inactive: Test System: UDS HUMAN HEPATOCYTES, Strain/Indicator: THY INCORP, Metabolic Activation: NONE, Method: AUTORADIOGRAPHY inactive; negative | Test System: UDS RAT HEPATOCYTES, Strain/Indicator: THY INCORP, Metabolic Activation: NONE, Method: AUTORADIOGRAPHY inactive; negative
active: Test System: CHINESE HAMSTER V-79, Strain/Indicator: V-79 (HGPRT)/6-THIOGUANINE, Metabolic Activation: NONE active; positive

C=C1/C(=C\C=C2/CCC[C@]3(C)[C@@H]([C@H](C)/C=C/[C@@H](O)C4CC4)CC[C@@H]23)C[C@@H](O)C[C@@H]1O
inactive: [8] inactive; negative | Test System: AMES SALMONELLA TYPHIMURIUM, Strain/Indicator: TA98, Metabolic Activation: S-9, Method: PREINCUBATION inactive; negative | [9] inactive; negative | Test System: AMES SALMONELLA TYPHIMURIUM, Strain/Indicator: TA100, Metabolic Activation: S-9, Method: PREINCUBATION inactive; negative | Test System: AMES SALMONELLA TYPHIMURIUM, Strain/Indicator: TA1535, Metabolic Activation: NONE, Method: PREINCUBATION inactive; negative | Test System: AMES SALMONELLA TYPHIMURIUM, Strain/Indicator: TA1535, Metabolic Activation: S-9, Method: PREINCUBATION inactive; negative | Test System: AMES SALMONELLA TYPHIMURIUM, Strain/Indicator: TA1537, Metabolic Activation: NONE, Method: PREINCUBATION inactive; negative | Test System: AMES SALMONELLA TYPHIMURIUM, Strain/Indicator: TA1537, Metabolic Activation: S-9, Method: PREINCUBATION inactive; negative | Test System: E. COLI, Strain/Indicator: WP2 UVRA, Metabolic Activation: NONE, Method: PREINCUBATION inactive; negative | Test System: E. COLI, Strain/Indicator: WP2 UVRA, Metabolic Activation: S-9, Method: PREINCUBATION inactive; negative

C=CC1=C(C)C(=O)N/C1=C\c1[nH]c(Cc2[nH]c(/C=C3\NC(=O)C(C)=C3C=C)c(C)c2CCC(=O)NCCS(=O)(=O)O)c(CCC(=O)NCCS(=O)(=O)O)c1C
inactive: Test System: Ames Salmonella typhimurium, Strain/Indicator: TA98, Metabolic Activation: Liver, S-9, Method: Preincubation inactive; negative | Test System: Ames Salmonella typhimurium, Strain/Indicator: TA98, Metabolic Activation: None, Method: Preincubation inactive; negative | Test System: Ames Salmonella typhimurium, Strain/Indicator: TA100, Metabolic Activation: Liver, S-9, Method: Preincubation inactive; negative | Test System: Ames Salmonella typhimurium, Strain/Indicator: TA100, Metabolic Activation: None, Method: Preincubation inactive; negative | Test System: Ames Salmonella typhimurium, Strain/Indicator: TA102, Metabolic Activation: Liver, S-9, Method: Preincubation inactive; negative | Test System: Ames Salmonella typhimurium, Strain/Indicator: TA102, Metabolic Activation: None, Method: Preincubation inactive; negative
